According to ChEMBL document CHEMBL4706515, “Discovery of new [1,2,4] Triazolo[1,5-a]Pyrimidine derivatives that Kill gastric cancer cells via the mitochondria pathway” (Eur J Med Chem, 2020):
Calls of active or inactive are those of the source. The rule behind the calls is not given here.

How the values were obtained:
MGC-803 [1] = assay: Induction of apoptosis in human MGC-803 cells assessed as accumulation of cleaved caspase 3 protein at 0.625 to 10 uM measured after 24 hrs by western blot assay; assay type: functional, cell-based; conditions: dose 0.625-10 µM
SGC-7901 [2] = assay: Induction of apoptosis in human SGC-7901 cells assessed as early apoptotic cells at 2.5 uM measure after 24 hrs by Annexin-PI staining based Flowcytometry method (reference value: 2.68%); assay type: functional
SGC-7901 [3] = assay: Induction of apoptosis in human SGC-7901 cells assessed as late apoptotic cells at 5 uM measure after 24 hrs by Annexin-PI staining based Flowcytometry method (reference value: 1.29%); assay type: functional
MGC-803 [4] = assay: Induction of apoptosis in human MGC-803 cells assessed as necrotic cells at 0.625 uM measure after 24 hrs by Annexin-PI staining based Flowcytometry method (reference value: 3.13%); assay type: functional
MGC-803 [5] = assay: Cytotoxicity against human MGC-803 cells assessed as inhibition of cell viability incubated for 1 hr with Z-VAD-FMK followed by addition of compound; assay type: functional, cell-based
MGC-803 [6] = assay: Induction of apoptosis in human MGC-803 cells assessed as early apoptotic cells at 0.625 uM measure after 24 hrs by Annexin-PI staining based Flowcytometry method (reference value: 9.8%); assay type: functional
MGC-803 [7] = assay: Induction of apoptosis in human MGC-803 cells assessed as increase in ROS production preincubated for 1 hr with NAC followed by compound addition at 5 uM measured after 24 hrs by DCHF-DA staining based Flowcytometry method; assay type: functional, cell-based
MGC-803 [8] = assay: Induction of apoptosis in human MGC-803 cells assessed as accumulation of cleaved caspase 9 protein at 0.625 to 10 uM measured after 24 hrs by western blot assay; assay type: functional, cell-based; conditions: dose 0.625-10 µM
MGC-803 [9] = assay: Induction of mitochondrial membrane potential loss in human MGC-803 cells at 2.5 uM measured after 24 hrs by fluorescence method; conditions: Mitochondria
MGC-803 [10] = assay: Cell cycle arrest in human MGC-803 cells assessed as accumulation of cells in G2/M phase at 10 uM measured after 24 hrs by PI staining based flow cytometry; assay type: functional
MGC-803 [11] = assay: Induction of apoptosis in human MGC-803 cells assessed as increase in accumulation of LC3B-2 measured after 24 hrs by western blot assay; assay type: functional, cell-based
SGC-7901 [12] = assay: Induction of apoptosis in human SGC-7901 cells assessed as viable cells at 10 uM measure after 24 hrs by Annexin-PI staining based Flowcytometry method (reference value: 94.9%); assay type: functional; conditions: read-out: Activity
MGC-803 [13] = assay: Induction of apoptosis in human MGC-803 cells assessed as increase in ROS production at 5 uM measured after 24 hrs by DCHF-DA staining based Flowcytometry method; assay type: functional, cell-based
MGC-803 [14] = assay: Induction of apoptosis in human MGC-803 cells assessed as necrotic cells at 5 uM measure after 24 hrs by Annexin-PI staining based Flowcytometry method (reference value: 3.13%); assay type: functional
MGC-803 [15] = assay: Induction of apoptosis in human MGC-803 cells assessed as late apoptotic cells at 1.25 uM measure after 24 hrs by Annexin-PI staining based Flowcytometry method (reference value: 7.06%); assay type: functional
MGC-803 [16] = assay: Antiproliferative activity in human MGC-803 cells assessed as inhibition of cell viability preincubated for 1 hr with NAC followed by compound addition at 5 uM measured after 72 hrs by SRB staining method; assay type: functional, cell-based
MGC-803 [17] = assay: Cell cycle arrest in human MGC-803 cells assessed as accumulation of cells in G2/M phase at 5 uM measured after 24 hrs by PI staining based flow cytometry; assay type: functional
MGC-803 [18] = assay: Antiproliferative activity in human MGC-803 cells assessed as cell viability preincubated with chloroquine followed by compound addition measured after 24 hrs by SRB staining method; assay type: functional, cell-based
SGC-7901 [19] = assay: Induction of apoptosis in human SGC-7901 cells assessed as viable cells at 0.625 uM measure after 24 hrs by Annexin-PI staining based Flowcytometry method (reference value: 94.9%); assay type: functional; conditions: read-out: Activity
MGC-803 [20] = assay: Induction of apoptosis in human MGC-803 cells assessed as viable cells at 2.5 uM measure after 24 hrs by Annexin-PI staining based Flowcytometry method (reference value: 80%); assay type: functional; conditions: read-out: Activity
MGC-803 [21] = assay: Cytotoxicity against human MGC-803 cells assessed as inhibition of cell viability incubated for 1 hr with Z-LEHD-FMK followed by addition of compound; assay type: functional, cell-based
BGC-823 = assay: Antiproliferative activity against human BGC-823 cells assessed as inhibition of cell growth at measured after 72 hrs by SRB assay; assay type: functional
MGC-803 [22] = assay: Antiproliferative activity in human MGC-803 cells assessed as inhibition of cell viability preincubated with 3-methyladenine followed by compound addition measured after 24 hrs by SRB staining method; assay type: functional, cell-based
SGC-7901 [23] = assay: Induction of apoptosis in human SGC-7901 cells assessed as viable cells at 5 uM measure after 24 hrs by Annexin-PI staining based Flowcytometry method (reference value: 94.9%); assay type: functional; conditions: read-out: Activity
MGC-803 [24] = assay: Induction of apoptosis in human MGC-803 cells assessed as necrotic cells at 10 uM measure after 24 hrs by Annexin-PI staining based Flowcytometry method (reference value: 3.13%); assay type: functional
MGC-803 [25] = assay: Antiproliferative activity against human MGC-803 cells assessed as inhibition of cell growth incubated with compound for 1 to 24 hrs and measured 72 hrs after replacement of media by SRB assay; assay type: functional, cell-based; conditions: time 1-24 hrs
MGC-803 [26] = assay: Induction of mitochondrial membrane potential loss in human MGC-803 cells at 2.5 uM measured after 24 hrs by JC-1 staining based flow cytometry method (reference value: 0.344%); conditions: Mitochondria
SGC-7901 [27] = assay: Antiproliferative activity against human SGC-7901 cells assessed as inhibition of cell growth at measured after 72 hrs by SRB assay; assay type: functional
SGC-7901 [28] = assay: Induction of apoptosis in human SGC-7901 cells assessed as necrotic cells at 1.25 uM measure after 24 hrs by Annexin-PI staining based Flowcytometry method (reference value: 1.16%); assay type: functional
MGC-803 [29] = assay: Induction of mitochondrial membrane potential loss in human MGC-803 cells at 1.25 uM measured after 24 hrs by JC-1 staining based flow cytometry method (reference value: 0.344%); conditions: Mitochondria
MGC-803 [30] = assay: Induction of apoptosis in human MGC-803 cells assessed as viable cells at 5 uM measure after 24 hrs by Annexin-PI staining based Flowcytometry method (reference value: 80%); assay type: functional; conditions: read-out: Activity
MGC-803 [31] = assay: Induction of apoptosis in human MGC-803 cells assessed as accumulation of cleaved PARP protein at 0.625 to 10 uM measured after 24 hrs by western blot assay; assay type: functional, cell-based; conditions: dose 0.625-10 µM
SGC-7901 [32] = assay: Induction of apoptosis in human SGC-7901 cells assessed as viable cells at 2.5 uM measure after 24 hrs by Annexin-PI staining based Flowcytometry method (reference value: 94.9%); assay type: functional; conditions: read-out: Activity
MGC-803 [33] = assay: Induction of apoptosis in human MGC-803 cells assessed as early apoptotic cells at 1.25 uM measure after 24 hrs by Annexin-PI staining based Flowcytometry method (reference value: 9.8%); assay type: functional
MGC-803 [34] = assay: Induction of apoptosis in human MGC-803 cells assessed as early apoptotic cells at 2.5 uM measure after 24 hrs by Annexin-PI staining based Flowcytometry method (reference value: 9.8%); assay type: functional
EJ = assay: Antiproliferative activity against human EJ cells assessed as inhibition of cell growth at measured after 72 hrs by SRB assay; assay type: functional

## Cc1cc(Nc2ccc(C(=O)/C=C/c3cccc(Br)n3)cc2)n2nc(SCc3nc4ccccc4[nH]3)nc2n1
MGC-803 [1]
  Activity: Active
SGC-7901 [2]
  Activity: 5%
SGC-7901 [3]
  Activity: 29.8%
MGC-803 [4]
  Activity: 1.72%
MGC-803 [5]
  inhibition: inactive
MGC-803 [6]
  Activity: 4.92%
MGC-803 [7]
  Activity: inactive
MGC-803 [8]
  Activity: Active
MGC-803 [9]
  Activity: Active
MGC-803 [10]
  Activity: Active
MGC-803 [11]
  Activity: Active
SGC-7901 [12]
  viability at 10 µM: 23.9%
MGC-803 [13]
  Activity: Active
MGC-803 [14]
  Activity: 4.51%
MGC-803 [15]
  Activity: 1.95%
MGC-803 [16]
  inhibition: inactive
MGC-803 [17]
  Activity: Active
MGC-803 [18]
  inhibition: inactive
SGC-7901 [19]
  viability at 0.625 µM: 94.2%
MGC-803 [20]
  viability at 2.5 µM: 86.4%
MGC-803 [21]
  inhibition: inactive
BGC-823
  GI50: 640 nM
MGC-803 [22]
  inhibition: Active
SGC-7901 [23]
  viability at 5 µM: 53%
MGC-803 [24]
  Activity: 8.84%
MGC-803 [25]
  inhibition: Active
MGC-803 [26]
  Activity: 3.25%
SGC-7901 [27]
  GI50: 640 nM
SGC-7901 [28]
  Activity: 2.24%
MGC-803 [29]
  Activity: 10.1%
MGC-803 [30]
  viability at 5 µM: 73.8%
MGC-803 [31]
  Activity: Active
SGC-7901 [32]
  viability at 2.5 µM: 88.3%
MGC-803 [33]
  Activity: 7.21%
MGC-803 [34]
  Activity: 7.11%
EJ
  GI50: > 10000 nM
